Results from patent publication US20200129582A1, “NOVEL PEPTIDES AND PEPTIDOMIMETICS” (UNIVERSITY OF AUCKLAND, priority 2016, published 2020).
Like-named read-outs stand apart in the source and are kept apart here.

Tests used:
[1] = biological target: T1, coupled gap junction channels in hCMVEC cells (Homo sapiens, UniProt P17302); format: cell-based
T1 construct: A confluent monolayer of hCMVECs was pre-incubated in Peptide5; endogenous in cells; host or cells: hCMVEC
Experimental: (§1) The hCMVEC cells were plated in 1 μg/cm^2 collagen I (Gibco) 12-well plate at a density of 0.4×10^6 cells per well, and cultured overnight. A confluent monolayer of hCMVECs was pre-incubated in Peptide5 (5-100 μM) dissolved in culture medium for 2 hours or 24 hours. CBX at a concentration of 100 μM was used as a positive control. Cells were washed three times with phosphate buffered saline (PBS) without Ca^2+ or Mg^2+. The cells were then incubated in 0.05% Lucifer Yellow (LY) (Sigma), a fluorescent dye that is transferred through coupled gap junction channels (el-Fouly et al., 1987, Experimental cell research 168:422-430), +/−Peptide5 dissolved in PBS, and scrape-wounded with a size 10 carbon steel surgical blade (Swann-Morton, England). Following 5-minute incubation at 37° C. in 95% O2 and 5% CO2 without light, the 0.05% LY solution was removed. Cells were rinsed four times with PBS with Ca^2+ or Mg^2+, and then fixed in 4% paraformaldehyde (PFA) in PBS at pH 7.4 for 10 minutes at room temperature. Cells were then washed 3 times in PBS to remove PFA before fluorescent imaging. Fluorescent images were visualised using a Nikon TE2000E inverted fluorescent microscope (10× magnification, 0.3 numerical aperture), and captured using a Digital Sight CCD camera and Eclipse Net software (Nikon). Three images within each well from three independent experiments were taken for analysis and the total number of cells showing dye uptake from those that had been loaded were counted manually by masked observers.
as §1, with “1987),” for “1987, Experimental cell research 168:422-430),”

[2] = biological target: T2, Connexin43 plaques in ARPE-19 cells (Homo sapiens, UniProt P17302); assay: Immunocytochemistry and quantification of Cx43 plaques; format: cell-based; settings: for total Connexin43 expression reduced by, relative to the control: 500 μM; for Connexin43 labelling per cell compared to untreated control (in words): 2- or 6-hour treatment, Peptide5 50-500 μM, LaCl3 and CBX 500 μM; for distribution of Connexin43 plaques: Peptide5 500 μM, FIG. 1A
T2 construct: a cell line with high endogenous expression of connexin43; endogenous in cells; host or cells: ARPE-19
T2 sequence (P17302 2-382 limits assumed): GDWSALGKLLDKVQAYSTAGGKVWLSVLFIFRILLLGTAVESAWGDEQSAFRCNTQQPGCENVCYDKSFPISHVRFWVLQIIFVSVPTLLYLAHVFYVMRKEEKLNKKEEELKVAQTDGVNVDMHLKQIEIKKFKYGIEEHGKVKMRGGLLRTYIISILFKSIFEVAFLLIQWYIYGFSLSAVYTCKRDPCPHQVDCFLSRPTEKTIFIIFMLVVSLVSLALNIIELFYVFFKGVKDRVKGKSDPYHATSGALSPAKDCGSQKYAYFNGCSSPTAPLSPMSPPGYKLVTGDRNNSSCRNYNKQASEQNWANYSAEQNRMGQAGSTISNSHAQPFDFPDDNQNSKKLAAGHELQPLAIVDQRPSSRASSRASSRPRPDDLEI
Experimental: (§2) ARPE-19 cells were grown until confluent in 8-well glass chamber-slides (BD Falcon). Confluent monolayers of ARPE-19 cells were incubated at a final concentration of 50 to 500 μM Peptide5, 500 μM LaCl3 and 500 μM CBX in culture medium for 2 or 6 hours. Cells were fixed in 4% PFA (ProSciTech) at pH 7.4 for 10 min at room temperature, permeabilized with 0.05% Triton-X100 in PBS, and incubated in 10% normal goat serum to block non-specific labelling. Cells were rinsed three times with PBS containing 0.1 mM CaCl2 between each fixation, permeabilization, and blocking steps. Connexin43 polyclonal rabbit antibody (C6219, Sigma, 1:2000) was applied overnight, followed by a goat anti-rabbit Alexa Fluor® 568 secondary antibody (Invitrogen, 1:200) for 45 minutes. Nuclei were counterstained with DAPI (Invitrogen) at 10,000-fold dilution for 5 mins, and mounted with Citifluor™ mounting medium. Images were visualised and captured using an oil immersion lens (60× magnification, 1.35 numerical aperture) on an Olympus FV1000 upright confocal laser scanning microscope and Olympus FV10-ASW 4.0 software. The Transfluor feature in MetaXpress® Image acquisition and analysis software (Version 5.3.0.1, Molecular Devices) was used to quantify the total area of Connexin43 plaques per image.
as §2

T1 sequence (P17302 2-382 limits assumed): as above

| Compound | LY positive cells compared to the control ([1]; hCMVEC, 100 μM, 2-hour exposure, FIG. 2A) [%] | LY dye transfer, % of the untreated control ([1]; hCMVEC, 100 μM, 2-hour exposure, FIG. 5, untreated control 100±4.5%) [%] | LY dye transfer compared to native Peptide5 (in words) ([1]; hCMVEC, 100 μM, FIG. 2) | LY dye transfer compared to untreated control (in words) ([1]; hCMVEC, 100 μM, FIG. 2) | total Connexin43 expression reduced by, relative to the control ([2]; 2-hour exposure) [%] | total Connexin43 expression reduced by, relative to the control ([2]; after 6 hours) [%] | Connexin43 labelling per cell compared to untreated control (in words) [2] | LY dye transfer compared to untreated control (in words) [1] | LY dye transfer, % of the untreated control [1] [%] | LY positive cells compared to the control [1] [%] | distribution of Connexin43 plaques ([2]; 2-hour exposure) | distribution of Connexin43 plaques ([2]; 6-hour exposure) |
| --- | --- | --- | --- | --- | --- | --- | --- | --- | --- | --- | --- | --- |
| CC1(C)[C@@H](OC(=O)CCC(=O)O)CC[C@]2(C)[C@H]3C(=O)C=C4[C@@H]5C[C@@](C)(C(=O)O)CC[C@]5(C)CC[C@@]4(C)[C@]3(C)CC[C@@H]12 [CBX, Carbenoxolone] | 16.3±1.1 | 15.3±1.8 | significantly more than the native Peptide5 | significantly reduced | 30.0±8.2 | 53.4±8.1 | significant reduction | – | – | – | – | – |
| VDCFLSRPTEKT [Peptide5] | – | – | – | – | – | – | no significant difference | significantly attenuated LY dye transfer | 79.4±3.9 | 56.2±2.6 | patterns of cytoplasmic streaming | fragmented |
